Measurements as given in PubChem BioAssay (NCI).
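Assay format: 96-well plates, 48-hour exposure. The concentration for 50% growth inhibition is given as GI50. TGI: total growth inhibition.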

What was measured:
Assay in all cases: DTP human tumour cell line panel, 48 h
786-0 renal = test system: 786-0 renal
A498 renal = test system: A498 renal
A549 NSCLC = test system: A549 NSCLC
ACHN renal = test system: ACHN renal
BT-549 breast = test system: BT-549 breast
CAKI-1 renal = test system: CAKI-1 renal
CCRF-CEM leukemia = test system: CCRF-CEM leukemia
COLO 205 colon = test system: COLO 205 colon
DU-145 prostate = test system: DU-145 prostate
EKVX NSCLC = test system: EKVX NSCLC
HCC-2998 colon = test system: HCC-2998 colon
HCT-116 colon = test system: HCT-116 colon
HCT-15 colon = test system: HCT-15 colon
HL-60(TB) leukemia = test system: HL-60(TB) leukemia
HOP-62 NSCLC = test system: HOP-62 NSCLC
HOP-92 NSCLC = test system: HOP-92 NSCLC
HS 578T breast = test system: HS 578T breast
HT29 colon = test system: HT29 colon
IGROV1 ovarian = test system: IGROV1 ovarian
K-562 leukemia = test system: K-562 leukemia
KM12 colon = test system: KM12 colon
LOX IMVI melanoma = test system: LOX IMVI melanoma
M14 melanoma = test system: M14 melanoma
MALME-3M melanoma = test system: MALME-3M melanoma
MCF7 breast = test system: MCF7 breast
MDA-MB-231 breast = test system: MDA-MB-231 breast
MDA-MB-435 = test system: MDA-MB-435
MOLT-4 leukemia = test system: MOLT-4 leukemia
NCI-H226 lung = test system: NCI-H226 lung
NCI-H460 lung = test system: NCI-H460 lung
NCI-H522 lung = test system: NCI-H522 lung
NCI/ADR-RES ovarian = test system: NCI/ADR-RES ovarian
OVCAR-3 ovarian = test system: OVCAR-3 ovarian
OVCAR-4 ovarian = test system: OVCAR-4 ovarian
OVCAR-5 ovarian = test system: OVCAR-5 ovarian
OVCAR-8 ovarian = test system: OVCAR-8 ovarian
PC-3 prostate = test system: PC-3 prostate
RPMI-8226 leukemia = test system: RPMI-8226 leukemia
RXF 393 renal = test system: RXF 393 renal
SF-268 CNS = test system: SF-268 CNS
SF-295 CNS = test system: SF-295 CNS
SF-539 CNS = test system: SF-539 CNS
SK-MEL-2 melanoma = test system: SK-MEL-2 melanoma
SK-MEL-28 melanoma = test system: SK-MEL-28 melanoma
SK-MEL-5 melanoma = test system: SK-MEL-5 melanoma
SK-OV-3 ovarian = test system: SK-OV-3 ovarian
SN12C renal = test system: SN12C renal
SNB-19 CNS = test system: SNB-19 CNS
SNB-75 CNS = test system: SNB-75 CNS
SR leukemia = test system: SR leukemia
SW-620 colon = test system: SW-620 colon
T-47D breast = test system: T-47D breast
TK-10 renal = test system: TK-10 renal
U251 CNS = test system: U251 CNS
UACC-257 melanoma = test system: UACC-257 melanoma
UACC-62 melanoma = test system: UACC-62 melanoma
UO-31 renal = test system: UO-31 renal

O=C(Nc1ccc(Cl)c(C(F)(F)F)c1)Nc1ccc2c(ccn2C(=O)c2cccc(F)c2)c1
GI50 (786-0 renal): 2.63 µM | TGI (786-0 renal): 11.1 µM | GI50 (A498 renal): 2.67 µM | TGI (A498 renal): 9.86 µM | GI50 (A549 NSCLC): 2.9 µM | TGI (A549 NSCLC): 22.7 µM | GI50 (ACHN renal): 2.56 µM | TGI (ACHN renal): 7.47 µM | GI50 (BT-549 breast): 2.61 µM | TGI (BT-549 breast): 8.98 µM | GI50 (CAKI-1 renal): 2.16 µM | TGI (CAKI-1 renal): 9.07 µM | GI50 (CCRF-CEM leukemia): 3.78 µM | TGI (CCRF-CEM leukemia): > 100 µM | GI50 (COLO 205 colon): 2.25 µM | TGI (COLO 205 colon): 5.57 µM | GI50 (DU-145 prostate): 3.5 µM | TGI (DU-145 prostate): 48.8 µM | GI50 (EKVX NSCLC): 2.2 µM | TGI (EKVX NSCLC): 7.8 µM | GI50 (HCC-2998 colon): 2.49 µM | TGI (HCC-2998 colon): 9.04 µM | GI50 (HCT-116 colon): 3 µM | TGI (HCT-116 colon): 10.6 µM | GI50 (HCT-15 colon): 2.37 µM | TGI (HCT-15 colon): 9.7 µM | GI50 (HL-60(TB) leukemia): 2.33 µM | TGI (HL-60(TB) leukemia): 7.82 µM | GI50 (HOP-62 NSCLC): 2.45 µM | TGI (HOP-62 NSCLC): 7.81 µM | GI50 (HOP-92 NSCLC): 2.07 µM | TGI (HOP-92 NSCLC): 5.77 µM | GI50 (HS 578T breast): 2.8 µM | TGI (HS 578T breast): 8.55 µM | GI50 (HT29 colon): 3.16 µM | TGI (HT29 colon): 50.8 µM | GI50 (IGROV1 ovarian): 2.75 µM | TGI (IGROV1 ovarian): 10.6 µM | GI50 (K-562 leukemia): 3.15 µM | TGI (K-562 leukemia): 16.4 µM | GI50 (KM12 colon): 2.83 µM | TGI (KM12 colon): 12 µM | GI50 (LOX IMVI melanoma): 1.43 µM | TGI (LOX IMVI melanoma): 3.28 µM | GI50 (M14 melanoma): 3.22 µM | TGI (M14 melanoma): 16.8 µM | GI50 (MALME-3M melanoma): 1.92 µM | TGI (MALME-3M melanoma): 5.87 µM | GI50 (MCF7 breast): 2.12 µM | TGI (MCF7 breast): 7.66 µM | GI50 (MDA-MB-231 breast): 2.91 µM | TGI (MDA-MB-231 breast): 11 µM | GI50 (MDA-MB-435): 2.84 µM | TGI (MDA-MB-435): 14.1 µM | GI50 (MOLT-4 leukemia): 3.4 µM | TGI (MOLT-4 leukemia): > 100 µM | GI50 (NCI-H226 lung): 2.46 µM | TGI (NCI-H226 lung): 7.5 µM | GI50 (NCI-H460 lung): 2.8 µM | TGI (NCI-H460 lung): 10 µM | GI50 (NCI-H522 lung): 2.42 µM | TGI (NCI-H522 lung): 7.67 µM | GI50 (NCI/ADR-RES ovarian): 2.5 µM | TGI (NCI/ADR-RES ovarian): 7.25 µM | GI50 (OVCAR-3 ovarian): 2.16 µM | TGI (OVCAR-3 ovarian): 6.2 µM | GI50 (OVCAR-4 ovarian): 2.98 µM | TGI (OVCAR-4 ovarian): > 100 µM | GI50 (OVCAR-5 ovarian): 4.86 µM | TGI (OVCAR-5 ovarian): 38.9 µM | GI50 (OVCAR-8 ovarian): 3.15 µM | TGI (OVCAR-8 ovarian): 17.9 µM | GI50 (PC-3 prostate): 2.92 µM | TGI (PC-3 prostate): 33.5 µM | GI50 (RPMI-8226 leukemia): 2.78 µM | TGI (RPMI-8226 leukemia): 10.9 µM | GI50 (RXF 393 renal): 1.74 µM | TGI (RXF 393 renal): 4.08 µM | GI50 (SF-268 CNS): 3.43 µM | TGI (SF-268 CNS): > 100 µM | GI50 (SF-295 CNS): 1.93 µM | TGI (SF-295 CNS): 4.76 µM | GI50 (SF-539 CNS): 2.71 µM | TGI (SF-539 CNS): 8.26 µM | GI50 (SK-MEL-2 melanoma): 2.36 µM | TGI (SK-MEL-2 melanoma): 6.89 µM | GI50 (SK-MEL-28 melanoma): 3.37 µM | TGI (SK-MEL-28 melanoma): 19.6 µM | GI50 (SK-MEL-5 melanoma): 2.4 µM | TGI (SK-MEL-5 melanoma): 6.64 µM | GI50 (SK-OV-3 ovarian): 2.79 µM | TGI (SK-OV-3 ovarian): 8.99 µM | GI50 (SN12C renal): 3.1 µM | TGI (SN12C renal): 15.8 µM | GI50 (SNB-19 CNS): 3.18 µM | TGI (SNB-19 CNS): 14.1 µM | GI50 (SNB-75 CNS): 1.9 µM | TGI (SNB-75 CNS): 9.11 µM | GI50 (SR leukemia): 2.13 µM | TGI (SR leukemia): 9.12 µM | GI50 (SW-620 colon): 3.5 µM | TGI (SW-620 colon): 35.8 µM | GI50 (T-47D breast): 2.53 µM | TGI (T-47D breast): 9.11 µM | GI50 (TK-10 renal): 2.91 µM | TGI (TK-10 renal): 36.5 µM | GI50 (U251 CNS): 3.01 µM | TGI (U251 CNS): 11.4 µM | GI50 (UACC-257 melanoma): 2.44 µM | TGI (UACC-257 melanoma): 7.74 µM | GI50 (UACC-62 melanoma): 2.53 µM | TGI (UACC-62 melanoma): 15.3 µM | GI50 (UO-31 renal): 1.7 µM | TGI (UO-31 renal): 4.42 µM
